Source: patent publication US11596623B2, “Methods for treating virus infection or proliferation” (HOWARD UNIVERSITY, priority 2018, dated 2023)
Entries after “also recorded” stand apart in the source; their conditions may differ.

Test system: EV-D68
Assay: EV-D68 VP1 western assay in HEp-2 cells
Assay type: cell-based
Settings: 48 h; for EV-D68 proliferation / major structural protein VP1: HEp-2 cells, western
Experimental: HEp-2 cells were grown to 80-90% confluency in Dulbecco's Modified Eagle's medium (DMEM) supplemented with 10% fetal calf serum (FCS) and 1% penicillin-streptomycin (PS) and fungicide. The virus and the indicated concentration of compounds were added and incubated for 48 h. After washing with PBS, the cell lysates were collected and were run in a Biorad XT-Criterion gel and transferred to a PVDF membrane. The membrane was blotted with an antibody directed against the EVD68 major structural protein VP1 purchased from Genetex (Irvine, Calif.). An anti-mouse IgG-HRP secondary antibody and Biorad's Western ECL substrate-Clarity was used to label the bands and the image was obtained in a Biorad Gel doc system. […] The tubulin antibody was used as the loading control.
HEp-2 cells were grown to 80-90% confluency in Dulbecco's Modified Eagle's medium (DMEM) supplemented with 10% fetal calf serum (PCS) and 1% penicillin-streptomycin (PS) and 1% fungicide. The EV-D68 virus and the indicated concentration of compounds were added and incubated for 48 h. After washing with PBS, the cell lysates were collected and were run in a Biorad Stain free TGX gel and were transferred to a PVDF membrane. The membrane was blotted with an antibody directed against the EV-D68 major structural protein VP1 purchased from Genetex (Irvine, Calif.). An antimouse IgG-HRP secondary antibody and Biorad's Western ECL substrate-Clarity was used to label the bands and the image was obtained in a Biorad Gel doc system. […] The non-specific band high above the VP1 band indicate that all virus treated lanes were loaded with equal amount of lysates. The identity of the EV-D68 VP1 protein is confirmed by the lack of the 33 kD band in the no virus lane.
HEp-2 cells were grown to 80-90% confluency in Dulbecco's Modified Eagle's medium (DMEM) supplemented with 10% fetal calf serum FCS and 1% penicillin-streptomycin (PS) and fungicide. The representative virus (EV-D68) and the indicated concentration of compounds were added and incubated for 48 h. […]

SMILES: Nn1c(S)nnc1-c1cc(Cl)cc(Cl)c1 [SD29-14]
- EV-D68 proliferation / major structural protein VP1: inhibits EV-D68 proliferation in a dose dependent way; also recorded: effectively inhibited the viral major structural protein VP1
- EV-D68 proliferation / major structural protein VP1 (listed as SD 29-14): inhibits proliferation of a representative virus (EV-D68), in a dose dependent way
- efficacy in inhibiting EV-D68 compared with SD29 and SD29-12 (VP1 western): better efficacy
